Experimental data taken from ChEMBL document CHEMBL4823291, “Discovery of 5,6,7,8-tetrahydropyrido[3,4-d]pyrimidine derivatives as novel selective Axl inhibitors” (Bioorg Med Chem Lett, 2021).

How the values were obtained:
[1] = target: T1, Tyrosine-protein kinase Mer (Mus musculus, UniProt Q60805); assay: Inhibition of Mer in mouse BaF3 cells; assay type: cell-based
T1 sequence (Q60805 whole entry): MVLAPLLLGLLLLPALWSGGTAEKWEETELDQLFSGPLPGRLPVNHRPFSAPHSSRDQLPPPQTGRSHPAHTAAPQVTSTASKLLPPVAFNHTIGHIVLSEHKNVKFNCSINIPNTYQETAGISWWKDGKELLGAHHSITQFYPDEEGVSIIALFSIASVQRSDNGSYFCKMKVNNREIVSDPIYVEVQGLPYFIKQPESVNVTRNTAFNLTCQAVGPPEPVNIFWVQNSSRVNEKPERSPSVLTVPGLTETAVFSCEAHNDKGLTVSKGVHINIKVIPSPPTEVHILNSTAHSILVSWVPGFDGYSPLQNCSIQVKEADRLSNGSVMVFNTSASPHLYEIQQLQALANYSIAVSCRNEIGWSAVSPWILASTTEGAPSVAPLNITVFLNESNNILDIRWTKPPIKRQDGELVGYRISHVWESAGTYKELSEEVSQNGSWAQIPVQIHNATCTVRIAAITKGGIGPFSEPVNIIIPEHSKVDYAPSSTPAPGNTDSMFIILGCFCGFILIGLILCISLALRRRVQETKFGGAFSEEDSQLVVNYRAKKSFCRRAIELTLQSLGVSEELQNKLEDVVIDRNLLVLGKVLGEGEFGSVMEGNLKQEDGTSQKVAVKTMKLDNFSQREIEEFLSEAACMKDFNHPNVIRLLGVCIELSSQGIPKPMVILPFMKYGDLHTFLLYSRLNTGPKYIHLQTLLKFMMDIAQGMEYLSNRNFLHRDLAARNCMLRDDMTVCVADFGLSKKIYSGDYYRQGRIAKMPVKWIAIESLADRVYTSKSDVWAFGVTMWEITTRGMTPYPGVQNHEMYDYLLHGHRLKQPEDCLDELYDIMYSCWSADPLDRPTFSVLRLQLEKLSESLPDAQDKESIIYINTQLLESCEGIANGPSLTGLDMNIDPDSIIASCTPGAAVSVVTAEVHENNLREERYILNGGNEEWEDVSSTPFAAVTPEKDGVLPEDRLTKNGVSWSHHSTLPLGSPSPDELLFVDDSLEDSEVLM

[2] = target: T2, Tyrosine-protein kinase Mer (Homo sapiens, UniProt Q12866); assay: Inhibition of Mer (unknown origin) by cell free assay
T2 sequence (Q12866 whole entry): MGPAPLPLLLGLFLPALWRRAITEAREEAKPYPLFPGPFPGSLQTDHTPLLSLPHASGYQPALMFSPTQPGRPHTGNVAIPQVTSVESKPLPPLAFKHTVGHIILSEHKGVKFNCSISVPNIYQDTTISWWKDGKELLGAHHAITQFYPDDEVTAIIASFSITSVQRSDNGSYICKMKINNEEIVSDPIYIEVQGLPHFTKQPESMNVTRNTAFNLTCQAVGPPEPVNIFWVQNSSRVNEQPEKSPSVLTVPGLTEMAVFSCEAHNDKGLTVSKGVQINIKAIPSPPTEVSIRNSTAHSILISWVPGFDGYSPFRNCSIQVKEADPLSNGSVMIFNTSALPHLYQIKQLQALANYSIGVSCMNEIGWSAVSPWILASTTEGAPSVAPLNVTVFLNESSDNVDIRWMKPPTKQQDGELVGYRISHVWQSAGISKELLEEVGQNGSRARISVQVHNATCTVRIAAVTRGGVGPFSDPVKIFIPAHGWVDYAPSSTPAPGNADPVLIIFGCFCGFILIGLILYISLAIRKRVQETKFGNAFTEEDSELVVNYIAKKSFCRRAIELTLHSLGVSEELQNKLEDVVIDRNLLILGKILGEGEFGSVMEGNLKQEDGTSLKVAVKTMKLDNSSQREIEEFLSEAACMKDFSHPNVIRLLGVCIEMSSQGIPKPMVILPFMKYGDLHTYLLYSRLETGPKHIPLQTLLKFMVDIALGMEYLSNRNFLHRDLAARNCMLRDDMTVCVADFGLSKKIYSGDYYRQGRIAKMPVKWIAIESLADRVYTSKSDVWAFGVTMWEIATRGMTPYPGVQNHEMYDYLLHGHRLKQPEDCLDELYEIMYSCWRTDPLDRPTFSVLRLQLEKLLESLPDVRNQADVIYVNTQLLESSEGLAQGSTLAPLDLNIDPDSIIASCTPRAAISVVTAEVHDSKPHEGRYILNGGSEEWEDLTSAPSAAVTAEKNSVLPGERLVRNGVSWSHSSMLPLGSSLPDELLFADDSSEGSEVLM

[3] = target: T3, Tyrosine-protein kinase receptor UFO (Homo sapiens, UniProt P30530); assay: Inhibition of Axl (unknown origin) by cell free assay
T3 sequence (P30530 whole entry): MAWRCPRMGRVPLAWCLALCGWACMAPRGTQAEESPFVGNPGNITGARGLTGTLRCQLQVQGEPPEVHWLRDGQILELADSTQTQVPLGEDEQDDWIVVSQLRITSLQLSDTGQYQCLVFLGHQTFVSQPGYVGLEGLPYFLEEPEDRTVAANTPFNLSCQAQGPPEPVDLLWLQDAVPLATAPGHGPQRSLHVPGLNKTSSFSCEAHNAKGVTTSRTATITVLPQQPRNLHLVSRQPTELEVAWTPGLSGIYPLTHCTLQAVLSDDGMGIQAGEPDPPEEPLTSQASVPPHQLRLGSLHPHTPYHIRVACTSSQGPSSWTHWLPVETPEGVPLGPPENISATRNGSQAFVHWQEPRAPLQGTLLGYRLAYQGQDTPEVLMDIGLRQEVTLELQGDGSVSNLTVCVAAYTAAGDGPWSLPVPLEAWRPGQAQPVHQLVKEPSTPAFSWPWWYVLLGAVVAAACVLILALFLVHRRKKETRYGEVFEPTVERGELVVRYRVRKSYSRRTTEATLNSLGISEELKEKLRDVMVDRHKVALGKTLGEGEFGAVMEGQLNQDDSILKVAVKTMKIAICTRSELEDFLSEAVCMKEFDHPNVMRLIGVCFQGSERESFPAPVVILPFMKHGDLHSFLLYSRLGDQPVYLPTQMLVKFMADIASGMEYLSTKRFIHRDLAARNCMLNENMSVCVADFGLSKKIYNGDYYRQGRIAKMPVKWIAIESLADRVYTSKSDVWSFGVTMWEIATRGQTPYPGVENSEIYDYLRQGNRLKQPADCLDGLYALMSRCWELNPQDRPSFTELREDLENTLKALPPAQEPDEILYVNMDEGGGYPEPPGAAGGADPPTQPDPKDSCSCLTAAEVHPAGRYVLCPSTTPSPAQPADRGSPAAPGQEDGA

[4] = target: T4, Tyrosine-protein kinase receptor UFO (Mus musculus, UniProt Q00993); assay: Inhibition of Axl in mouse BaF3 cells; assay type: cell-based
T4 sequence (Q00993 whole entry): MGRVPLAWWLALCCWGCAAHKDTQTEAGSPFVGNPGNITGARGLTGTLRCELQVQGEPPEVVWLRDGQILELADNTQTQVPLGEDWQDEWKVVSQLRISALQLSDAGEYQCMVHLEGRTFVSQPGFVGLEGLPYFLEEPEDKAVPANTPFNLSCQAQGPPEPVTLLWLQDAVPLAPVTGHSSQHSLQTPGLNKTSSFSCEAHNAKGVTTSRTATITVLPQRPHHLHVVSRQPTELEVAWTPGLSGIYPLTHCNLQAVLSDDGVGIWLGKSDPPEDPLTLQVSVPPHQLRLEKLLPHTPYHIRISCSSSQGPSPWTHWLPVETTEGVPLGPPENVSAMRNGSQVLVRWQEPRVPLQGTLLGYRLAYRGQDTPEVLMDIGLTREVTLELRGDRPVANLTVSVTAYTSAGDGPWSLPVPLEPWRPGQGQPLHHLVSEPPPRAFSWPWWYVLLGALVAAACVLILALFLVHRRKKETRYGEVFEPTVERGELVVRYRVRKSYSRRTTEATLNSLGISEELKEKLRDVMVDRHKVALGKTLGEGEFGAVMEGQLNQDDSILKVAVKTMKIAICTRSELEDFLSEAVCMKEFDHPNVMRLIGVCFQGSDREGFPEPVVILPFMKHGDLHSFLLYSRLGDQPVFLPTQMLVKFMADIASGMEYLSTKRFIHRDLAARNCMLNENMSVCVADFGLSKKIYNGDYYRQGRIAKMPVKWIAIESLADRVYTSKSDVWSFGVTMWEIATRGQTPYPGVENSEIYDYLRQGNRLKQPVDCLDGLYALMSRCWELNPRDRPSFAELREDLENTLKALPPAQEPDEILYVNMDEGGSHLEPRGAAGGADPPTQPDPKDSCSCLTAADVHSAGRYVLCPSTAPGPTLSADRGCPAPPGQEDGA

[5] = system: BaF3; assay: Ratio of IC50 for Mer in mouse BaF3 cells to IC50 for Axl in mouse BaF3 cells; assay type: cell-based
[6] = species: Homo sapiens; assay: Ratio of IC50 for Mer (unknown origin) to IC50 for Axl (unknown origin)

Row | IC50 [1] | IC50 [2] | IC50 [3] | IC50 [4] | Ratio IC50 [6] | SMILES | Ratio IC50 [5]
1 | 130 nM | 150 nM | 8.5 nM | 49 nM | 18 | CN1CCC(CN2CCc3c(ncnc3Oc3ccc(NC(=O)c4cn(CCF)c(=O)n(-c5ccc(F)cc5)c4=O)cc3F)C2)CC1 | 2.7
2 | 110 nM | 110 nM | 5.5 nM | 46 nM | 20 | CC(C)Cn1cc(C(=O)Nc2ccc(Oc3ncnc4c3CCN(CC3CCN(C)CC3)C4)c(F)c2)c(=O)n(-c2ccc(F)cc2)c1=O | 2.4
3 | 110 nM | 33 nM | 6 nM | 42 nM | 5.5 | CC(C)n1cc(C(=O)Nc2ccc(Oc3ncnc4c3CN(C(=O)CN3CCN(C)CC3)C4)c(F)c2)c(=O)n(-c2ccc(F)cc2)c1=O | 2.6
4 | 730 nM | 230 nM | 16 nM | 270 nM | 14 | CC(C)n1cc(C(=O)Nc2ccc(Oc3ncnc4c3CN(C(=O)CN3CCOCC3)C4)c(F)c2)c(=O)n(-c2ccc(F)cc2)c1=O | 2.7
5 | 570 nM | 530 nM | 6.6 nM | 110 nM | 80 | CC(C)n1cc(C(=O)Nc2ccc(Oc3ncnc4c3CCN(C)C4)c(F)c2)c(=O)n(-c2ccc(F)cc2)c1=O | 
6 | 810 nM | 270 nM | 64 nM | 150 nM | 4.2 | CC(C)n1cc(C(=O)Nc2ccc(Oc3ncnc4c3CN(C)CC4)c(F)c2)c(=O)n(-c2ccc(F)cc2)c1=O | 4.2
7 | 210 nM | 270 nM | 5.3 nM | 34 nM | 51 | Cc1ccc(-n2c(=O)c(C(=O)Nc3ccc(Oc4ncnc5c4CCN(CC4CCN(C)CC4)C5)c(F)c3)cn(CC3CC3)c2=O)nc1 | 6.2
8 | 55 nM | 31 nM | 5.6 nM | 13 nM | 5.5 | CC(C)n1cc(C(=O)Nc2ccc(Oc3ncnc4c3CCN(C3CCN(C)CC3)C4)c(F)c2)c(=O)n(-c2ccc(F)cc2)c1=O | 4.2
9 | 630 nM | 500 nM | 12 nM | 120 nM | 42 | CC(C)n1cc(C(=O)Nc2ccc(Oc3ncnc4c3CCN(C(=O)C3CCN(C)CC3)C4)c(F)c2)c(=O)n(-c2ccc(F)cc2)c1=O | 5.3
10 | 92 nM | 77 nM | 6.3 nM | 22 nM | 12 | CC(C)n1cc(C(=O)Nc2ccc(Oc3ncnc4c3CCN(CC3CN(C)C3)C4)c(F)c2)c(=O)n(-c2ccc(F)cc2)c1=O | 4.2
11 | 78 nM | 74 nM | 3.7 nM | 15 nM | 20 | CC(C)n1cc(C(=O)Nc2ccc(Oc3ncnc4c3CCN(CC3CCN(C)CC3)C4)c(F)c2)c(=O)n(-c2ccc(F)cc2)c1=O | 5.2
12 | 240 nM | 34 nM | 8.6 nM | 93 nM | 4 | CC(C)n1cc(C(=O)Nc2ccc(Oc3ncnc4c3CN(CC3CCOCC3)C4)c(F)c2)c(=O)n(-c2ccc(F)cc2)c1=O | 2.6
13 | 39 nM | < 4.1 nM | 3.4 nM | 17 nM | < 1.2 | CC(C)n1cc(C(=O)Nc2ccc(Oc3ncnc4c3CN(C(=O)CC3CCN(C)CC3)C4)c(F)c2)c(=O)n(-c2ccc(F)cc2)c1=O | 2.3
14 | 130 nM | 88 nM | 2.4 nM | 16 nM | 37 | CN1CCC(CN2CCc3c(ncnc3Oc3ccc(NC(=O)c4cn(CC5CCC5)c(=O)n(-c5ccc(F)cc5)c4=O)cc3F)C2)CC1 | 8.1
15 | 2600 nM | > 1000 nM | 22 nM | 220 nM | > 45 | CC(C)n1cc(C(=O)Nc2ccc(Oc3ncnc4c3CN(C)C4)c(F)c2)c(=O)n(-c2ccc(F)cc2)c1=O | 
